Source: patent US20240208992A1, “MACROCYCLES AS CFTR MODULATORS” (Idorsia Pharmaceuticals Ltd, priority 2021, published 2024)

Biological target: human F508del-CFTR (Homo sapiens, UniProt P13569, DEL508-508)
Test: F508del-CFTR cell surface expression (corrector activity), DiscoveRx ß-galactosidase complementation chemiluminescence assay in recombinant U2OS cell line;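 further: U2OS cells co-expressing ProLink-tagged F508del-CFTR and a membrane-anchored enzyme acceptor, where more surface CFTR restores β-galactosidase activity measured by chemiluminescence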
Details: U2OS cell line, 16h compound incubation; for EC50: EC50, F508del-CFTR cell surface expression, geomean values; for Emax: U2OS, in relation to the Emax of the corrector lumacaftor (=100%), arithmetic mean values

Chain of human F508del-CFTR (P13569 with tags, fused parts or gaps DEL508-508): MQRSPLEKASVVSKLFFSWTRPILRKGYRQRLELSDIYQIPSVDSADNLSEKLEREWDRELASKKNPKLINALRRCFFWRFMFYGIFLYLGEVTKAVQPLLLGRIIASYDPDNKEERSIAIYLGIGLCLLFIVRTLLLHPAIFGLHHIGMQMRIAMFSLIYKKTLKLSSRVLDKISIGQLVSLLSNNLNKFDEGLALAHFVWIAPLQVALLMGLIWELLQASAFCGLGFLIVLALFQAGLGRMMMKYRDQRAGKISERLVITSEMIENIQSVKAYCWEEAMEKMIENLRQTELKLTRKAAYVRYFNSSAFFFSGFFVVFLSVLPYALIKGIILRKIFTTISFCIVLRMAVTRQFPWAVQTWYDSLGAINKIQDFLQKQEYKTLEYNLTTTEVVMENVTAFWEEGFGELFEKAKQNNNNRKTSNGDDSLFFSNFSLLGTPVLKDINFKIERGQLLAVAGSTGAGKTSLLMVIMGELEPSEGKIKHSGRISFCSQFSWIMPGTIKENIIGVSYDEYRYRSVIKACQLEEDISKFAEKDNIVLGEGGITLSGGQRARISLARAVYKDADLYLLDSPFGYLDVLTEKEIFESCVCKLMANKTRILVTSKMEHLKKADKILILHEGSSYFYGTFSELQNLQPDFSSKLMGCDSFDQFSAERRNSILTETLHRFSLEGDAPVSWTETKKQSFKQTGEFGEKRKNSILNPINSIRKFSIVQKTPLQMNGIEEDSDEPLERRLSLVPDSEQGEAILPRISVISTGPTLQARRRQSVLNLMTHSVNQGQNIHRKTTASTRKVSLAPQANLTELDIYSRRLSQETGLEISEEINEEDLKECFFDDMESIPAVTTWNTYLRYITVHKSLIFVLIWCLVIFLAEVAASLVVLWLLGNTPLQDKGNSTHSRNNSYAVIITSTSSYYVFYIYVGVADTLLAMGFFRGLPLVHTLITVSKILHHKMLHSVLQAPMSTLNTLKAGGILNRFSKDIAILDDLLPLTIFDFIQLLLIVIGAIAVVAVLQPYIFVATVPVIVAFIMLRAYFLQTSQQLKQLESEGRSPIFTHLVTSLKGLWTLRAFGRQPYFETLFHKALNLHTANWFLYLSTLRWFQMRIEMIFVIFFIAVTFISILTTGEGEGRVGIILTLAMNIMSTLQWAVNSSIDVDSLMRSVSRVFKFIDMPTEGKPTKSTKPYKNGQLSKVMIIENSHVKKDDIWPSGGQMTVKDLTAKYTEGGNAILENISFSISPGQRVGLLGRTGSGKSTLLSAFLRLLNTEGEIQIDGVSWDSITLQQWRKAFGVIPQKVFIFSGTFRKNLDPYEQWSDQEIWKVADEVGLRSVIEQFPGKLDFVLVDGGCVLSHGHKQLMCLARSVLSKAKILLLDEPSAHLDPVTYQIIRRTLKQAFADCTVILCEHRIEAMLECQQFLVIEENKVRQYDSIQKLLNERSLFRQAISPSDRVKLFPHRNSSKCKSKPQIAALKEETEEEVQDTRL

SMILES | EC50 [nM] | Emax [%]
CC(C)C[C@H]1C(=O)N2CCCC[C@@H]2C(=O)N[C@H](Cc2ccccc2)COc2cnc3ccccc3c2C(=O)N[C@H](C(=O)NCCc2ccc(-c3ncccn3)cc2)CC(=O)N1C [Example 122, (9S,13S,19aR,22R)-22-benzyl-13-isobutyl-12-methyl-7,11,14,20-tetraoxo-N-(4-(pyrimidin-2-yl)phenethyl)-7,8,9,10,11,12,13,14,17,18,19,19a,20,21,22,23-hexadecahydro-16H-pyrido[2′,1′:6,7][1]oxa[4,7,10,14]tetraazacycloheptadecino[17,16-c]quinoline-9-carboxamide] | 324 | 292
CC(C)C[C@H]1C(=O)N2CCCC[C@@H]2C(=O)N[C@H](Cc2ccccc2)COc2cnc3ccccc3c2C(=O)N[C@H](C(=O)NCCc2cccc(-c3ncccn3)c2)CC(=O)N1C [Example 123, (9S,13S,19aR,22R)-22-benzyl-13-isobutyl-12-methyl-7,11,14,20-tetraoxo-N-(3-(pyrimidin-2-yl)phenethyl)-7,8,9,10,11,12,13,14,17,18,19,19a,20,21,22,23-hexadecahydro-16H-pyrido[2′,1′:6,7][1]oxa[4,7,10,14]tetraazacycloheptadecino[17,16-c]quinoline-9-carboxamide] | 873 | 280
CC(C)C[C@H]1C(=O)N2CCCC[C@@H]2C(=O)N[C@H](Cc2ccccc2)COc2cnc3ccccc3c2C(=O)N[C@H](C(=O)NCCc2cnn(C3CC3)c2)CC(=O)N1C [Example 124, (9S,13S,19aR,22R)-22-benzyl-N-(2-(1-cyclopropyl-1H-pyrazol-4-yl)ethyl)-13-isobutyl-12-methyl-7,11,14,20-tetraoxo-7,8,9,10,11,12,13,14,17,18,19,19a,20,21,22,23-hexadecahydro-16H-pyrido[2′,1′:6,7][1]oxa[4,7,10,14]tetraazacycloheptadecino[17,16-c]quinoline-9-carboxamide] | 382 | 347
Cc1cn(C)nc1CCNC(=O)[C@@H]1CC(=O)N(C)[C@@H](CC(C)C)C(=O)N2CCCC[C@@H]2C(=O)N[C@H](Cc2ccccc2)COc2cnc3ccccc3c2C(=O)N1 [Example 129, (9S,13S,19aR,22R)-22-benzyl-N-(2-(1,4-dimethyl-1H-pyrazol-3-yl)ethyl)-13-isobutyl-12-methyl-7,11,14,20-tetraoxo-7,8,9,10,11,12,13,14,17,18,19,19a,20,21,22,23-hexadecahydro-16H-pyrido[2′,11:6,7][1]oxa[4,7,10,14]tetraazacycloheptadecino[17,16-c]quinoline-9-carboxamide] | 406 | 264
COc1cccc(-c2noc(CCNC(=O)[C@@H]3CC(=O)N(C)[C@@H](CC(C)C)C(=O)N4CCOC[C@@H]4C(=O)N[C@H](Cc4ccccc4)COc4cnc5ccccc5c4C(=O)N3)n2)c1 [Example 130, (9S,13S,19aR,22R)-22-benzyl-13-isobutyl-N-(2-(3-(3-methoxyphenyl)-1,2,4-oxadiazol-5-yl)ethyl)-12-methyl-7,11,14,20-tetraoxo-7,8,9,10,11,12,13,14,16,17,19,19a,20,21,22,23-hexadecahydro-[1,4]oxazino[3′,4′:6,7][1]oxa[4,7,10,14]tetraazacycloheptadecino[17,16-c]quinoline-9-carboxamide] | 1000 | 264
COc1cccc(CCNC(=O)[C@@H]2CC(=O)N(C)[C@@H](CC(C)C)C(=O)N(C)C3(CC3)C(=O)N[C@H](Cc3ccccc3)COc3cnc4ccc(F)cc4c3C(=O)N2)c1 [Example 131, (3′S,7′S,13′R)-13′-benzyl-20′-fluoro-7′-isobutyl-N-(3-methoxyphenethyl)-6′,9′-dimethyl-1′,5′,8′,11′-tetraoxo-2′,3′,4′,5′,6′,7′,8′,9′,11′,12′,13′,14′-dodecahydro-1′H-spiro[cyclopropane-1,10′-[1]oxa[4,7,10,14]tetraazacycloheptadecino[17,16-c]quinoline]-3′-carboxamide] | 127 | 320
CC(C)C[C@H]1C(=O)N(C)C2(CC2)C(=O)N[C@H](Cc2ccccc2)COc2cnc3ccc(F)cc3c2C(=O)N[C@H](C(=O)NCCc2c(F)cccc2F)CC(=O)N1C [Example 132, (3′S,7′S,13′R)-13′-benzyl-N-(2,6-difluorophenethyl)-20′-fluoro-7′-isobutyl-6′,9′-dimethyl-1′,5′,8′,11′-tetraoxo-2′,3′,4′,5′,6′,7′,8′,9′,11′,12′,13′,14′-dodecahydro-1′H-spiro[cyclopropane-1,10′-[1]oxa[4,7,10,14]tetraazacycloheptadecino[17,16-c]quinoline]-3′-carboxamide] | 110 | 313
CC(C)C[C@H]1C(=O)N(C)C2(CC2)C(=O)N[C@H](Cc2ccccc2)COc2cnc3ccc(F)cc3c2C(=O)N[C@H](C(=O)NCCc2cccc(-c3cnccn3)c2)CC(=O)N1C [Example 134, (3′S,7′S,13′R)-13′-benzyl-20′-fluoro-7′-isobutyl-6′,9′-dimethyl-1′,5′,8′,11′-tetraoxo-N-(3-(pyrazin-2-yl)phenethyl)-2′,3′,4′,5′,6′,7′,8′,9′,11′,12′,13′,14′-dodecahydro-1′H-spiro[cyclopropane-1,10′-[1]oxa[4,7,10,14]tetraazacycloheptadecino[17,16-c]quinoline]-3′-carboxamide] | 506 | 150

Second part, the compound after the results:

EC50 [nM] | Emax [%] | SMILES
271 | 229 | Cc1cc(CCNC(=O)[C@@H]2CC(=O)N(C)[C@@H](CC(C)C)C(=O)N3CCCC[C@@H]3C(=O)N[C@H](Cc3ccccc3)COc3cnc4ccccc4c3C(=O)N2)ccc1-n1nccn1 [Example 125, (9S,13S,19aR,22R)-22-benzyl-13-isobutyl-12-methyl-N-(3-methyl-4-(2H-1,2,3-triazol-2-yl)phenethyl)-7,11,14,20-tetraoxo-7,8,9,10,11,12,13,14,17,18,19,19a,20,21,22,23-hexadecahydro-16H-pyrido[2′,1′:6,7][1]oxa[4,7,10,14]tetraazacycloheptadecino[17,16-c]quinoline-9-carboxamide]
261 | 230 | CC(C)C[C@H]1C(=O)N2CCCC[C@@H]2C(=O)N[C@H](Cc2ccccc2)COc2cnc3ccccc3c2C(=O)N[C@H](C(=O)NCCc2cc(F)cc(F)c2)CC(=O)N1C [Example 126, (9S,13S,19aR,22R)-22-benzyl-N-(3,5-difluorophenethyl)-13-isobutyl-12-methyl-7,11,14,20-tetraoxo-7,8,9,10,11,12,13,14,17,18,19,19a,20,21,22,23-hexadecahydro-16H-pyrido[2′,1′:6,7][1]oxa[4,7,10,14]tetraazacycloheptadecino[17,16-c]quinoline-9-carboxamide]
107 | 311 | CC(C)C[C@H]1C(=O)N2CCCC[C@@H]2C(=O)N[C@H](Cc2ccccc2)COc2cnc3ccccc3c2C(=O)N[C@H](C(=O)NCCc2nc(C3CC3)no2)CC(=O)N1C [Example 127, (9S,13S,19aR,22R)-22-benzyl-N-(2-(3-cyclopropyl-1,2,4-oxadiazol-5-yl)ethyl)-13-isobutyl-12-methyl-7,11,14,20-tetraoxo-7,8,9,10,11,12,13,14,17,18,19,19a,20,21,22,23-hexadecahydro-16H-pyrido[2′,1′:6,7][1]oxa[4,7,10,14]tetraazacycloheptadecino[17,16-c]quinoline-9-carboxamide]
190 | 292 | CC(C)C[C@H]1C(=O)N2CCCC[C@@H]2C(=O)N[C@H](Cc2ccccc2)COc2cnc3ccccc3c2C(=O)N[C@H](C(=O)NCCc2noc(C3CCC3)n2)CC(=O)N1C [Example 128, (9S,13S,19aR,22R)-22-benzyl-N-(2-(5-cyclobutyl-1,2,4-oxadiazol-3-yl)ethyl)-13-isobutyl-12-methyl-7,11,14,20-tetraoxo-7,8,9,10,11,12,13,14,17,18,19,19a,20,21,22,23-hexadecahydro-16H-pyrido[2′,1′:6,7][1]oxa[4,7,10,14]tetraazacycloheptadecino[17,16-c]quinoline-9-carboxamide]
149 | 213 | CC(C)C[C@H]1C(=O)N(C)C2(CC2)C(=O)N[C@H](Cc2ccccc2)COc2cnc3ccc(F)cc3c2C(=O)N[C@H](C(=O)NCCc2ccc(-c3cnccn3)cc2)CC(=O)N1C [Example 133, (3′S,7′S,13′R)-13′-benzyl-20′-fluoro-7′-isobutyl-6′,9′-dimethyl-1′,5′,8′,11′-tetraoxo-N-(4-(pyrazin-2-yl)phenethyl)-2′,3′,4′,5′,6′,7′,8′,9′,11′,12′,13′,14′-dodecahydro-1′H-spiro[cyclopropane-1,10′-[1]oxa[4,7,10,14]tetraazacycloheptadecino[17,16-c]quinoline]-3′-carboxamide]
177 | 255 | CC(C)C[C@H]1C(=O)N(C)C2(CC2)C(=O)N[C@H](Cc2ccccc2)COc2cnc3ccc(F)cc3c2C(=O)N[C@H](C(=O)NCCc2ccc(-n3nccn3)cc2)CC(=O)N1C [Example 135, (3′S,7′S,13′R)-N-(4-(2H-1,2,3-triazol-2-yl)phenethyl)-13′-benzyl-20′-fluoro-7′-isobutyl-6′,9′-dimethyl-1′,5′,8′,11′-tetraoxo-2′,3′,4′,5′,6′,7′,8′,9′,11′,12′,13′,14′-dodecahydro-1′H-spiro[cyclopropane-1,10′-[1]oxa[4,7,10,14]tetraazacycloheptadecino[17,16-c]quinoline]-3′-carboxamide]
270 | 271 | CC(C)C[C@H]1C(=O)N(C)C2(CC2)C(=O)N[C@H](Cc2ccccc2)COc2cnc3ccc(F)cc3c2C(=O)N[C@H](C(=O)NCCc2cccc(-n3nccn3)c2)CC(=O)N1C [Example 136, (3′S,7′S,13′R)-N-(3-(2H-1,2,3-triazol-2-yl)phenethyl)-13′-benzyl-20′-fluoro-7′-isobutyl-6′,9′-dimethyl-1′,5′,8′,11′-tetraoxo-2′,3′,4′,5′,6′,7′,8′,9′,11′,12′,13′,14′-dodecahydro-1′H-spiro[cyclopropane-1,10′-[1]oxa[4,7,10,14]tetraazacycloheptadecino[17,16-c]quinoline]-3′-carboxamide]
